# Test results taken from US6545021B1, “Use of substituted-1,5-dideoxy-1,5-imino-D-glucitol compounds for treating hepatitis virus infections” (G.D. Searle & Co., priority 1999, dated 2003).
# Tests used:
# HBV = experiment: Cell culture experiments with N-nonyl-DNJ: total HBV DNA and immune precipitated DNA; assay type: cell-based, hepatitis B virus
# Description: (§1) There are two measures of drug efficacy: reduction in total HBV DNA (measured by quantitative PCR), and reduction in HBV DNA from capsids with intact surface glycoproteins, which is the active form of the virus (measured by an ELISA-like immune precipitation assay followed by quantitative PCR).
# [1] = tested on: woodchuck hepatitis virus (WHV); experiment: Woodchuck model, N-nonyl-DNJ monotherapy, BID oral dosing; assay type: in vivo
# Procedure: Therefore, five groups of four animals each (all groups had both sexes, all but the control had two of each sex) were assigned to 0, 12.5, 25, 50, and 100 mg/kg/day with BID oral dosing. These were lab-reared wild animals. All animals were infected with woodchuck hepatitis virus (WHV) as neonates, and had been tested positive on serological tests for WHV surface antigen. Blood samples were drawn one week prior to dosing (−1 week), immediately before dosing (0 weeks), weekly during dosing (1, 2, 3, and 4 weeks), and after the end of dosing (5, 6, 8, and 10 weeks).
# as §1
# Before models are fitted to the data, a log transform was applied because: 1) the variation in IPDNA increases with increasing IPDNA values; the log transformation gives values with a nearly constant variation, and 2) it is expected that drug effects will appear as a constant multiplier of the IPDNA level. Because there are zero values of IPDNA, a small value (about ½ of the smallest non-zero value) was added to all values before the log transform.
# Two approaches were used to model the changes in slope to week with dose of N-nonyl-DNJ: a linear modeling approach and a nonlinear model. Both approaches assume that the (linear) rate of change of the Log(IPDNA) measure over the dosing period is the “right” measure to reflect the effect of the drug on the virus. Both approaches are fit in stages, and the first stage is common to both approaches. First, a simple straight line regression model is fit using weeks 0-4 to predict log(IPDNA_+—10) separately for each animal by run combination. In the second stage, the response variable is the slope fitted in the first stage.
# For the linear approach, a model is fit with slope to week as the response where run is considered a block, dose has a significant effect (almost all of this effect is due to a slope to dose), and the relevant error for testing the effect of dose is the variation among animals treated alike (after the adjustment for the runs as blocks). This is similar to using the calibration data within each run to first adjust each run's data to a common virus DNA concentration; the difference is that here the data from the woodchucks are used for the run adjustment rather than only the calibration data.
# For the nonlinear approach, a four parameter logistic model is fit with the slope to week as the response and the dose as the predictor. Again, run is considered a block, but because no run has all weeks, it is not possible to fully reflect the blocking in the nonlinear approach. […] The average maximum slope observed was 2.71 additional Log(IPDNA g/mL)/week, or an increase of about 150%/week, the average minimum slope observed with N-nonyl-DNJ is 0.31 fewer Log(IPDNA g/mL)/week), or about a decrease of about 25%/week. The slopes, the fitted model, the parameter estimates from the model, and the approximate standard errors for these parameters are all shown in FIG. 3. […] Whether in woodchucks or humans, the effective dose of both the N-alkyl-DNJ and nucleoside or nucleotide antiviral agent administerd in combination therewith can be administerd in two equal daily subdoses (i.e., B.I.D.).
smiles,measurement,setting,value
"CCCCCCCCCN1C[C@H](O)[C@@H](O)[C@H](O)[C@H]1CO [N-nonyl-DNJ, N-(n-nonyl)-1,5-dideoxy-1,5-imino-D-glucitol]",effect on the immune precipitated DNA (IPDNA),HBV,marked effect
same,effect on total HBV DNA,HBV,little or no effect
same,effect on total HBV DNA measurements,"[1]; all dose levels, quantitative PCR",no effect
same,levels of IPDNA over the dosing period,"[1]; high dose animals, weeks 0-4",decreasing levels of IPDNA
same,levels of IPDNA over the dosing period,"[1]; low dose animals, weeks 0-4",increasing levels of IPDNA
same,average minimum slope observed,[1]; weeks 0-4,0.31 fewer Log(IPDNA g/mL)/week
same,decrease of IPDNA per week at average minimum slope,[1]; weeks 0-4,about 25 %/week
same,approximate effective monotherapy dose,[1]; woodchucks,about 16 mg/kg/day
